Data as given in patent publication US11267825B2 (AICURIS GMBH & CO. KG, priority 2017, dated 2022).

Tests used:
[1] = test system: HBV; assay: Determination of HBV DNA from the supernatants of HepAD38 cells (anti-HBV activity); type: cell-based, hepatitis B virus; conditions: Hepatitis B virus, 144 h; HBV DNA in HepAD38 supernatant at day 6; read-out: Cell Activity (EC50)
Method: Determination of HBV DNA from the Supernatants of HepAD38 Cells
The anti-HBV activity was analysed in the stable transfected cell line HepAD38, which has been described to secrete high levels of HBV virion particles (Ladner et al., 1997). In brief, HepAD38 cells were cultured at 37° C. at 5% CO2 and 95% humidity in 200 μl maintenance medium, which was Dulbecco's modified Eagle's medium/Nutrient Mixture F-12 (Gibco, Karlsruhe), 10% fetal bovine serum (PAN Biotech Aidenbach) supplemented with 50 μg/ml penicillin/streptomycin (Gibco, Karlsruhe), 2 mM L-glutamine (PAN Biotech, Aidenbach), 400 μg/ml G418 (AppliChem, Darmstadt) and 0.3 μg/ml tetracycline. Cells were subcultured once a week in a 1:5 ratio, but were usually not passaged more than ten times. For the assay 60,000 cells were seeded in maintenance medium without any tetracycline into each well of a 96-well plate and treated with serial half-log dilutions of test compound. To minimize edge effects the outer 36 wells of the plate were not used but were filled with assay medium. On each assay plate six wells for the virus control (untreated HepAD38 cells) and six wells for the cell control (HepAD38 cells treated with 0.3 μg/ml tetracycline) were allocated, respectively. In addition, one plate set with reference inhibitors like BAY 41-4109, entecavir, and lamivudine instead of screening compounds were prepared in each experiment. In general, experiments were performed thrice in triplicates. At day 6 HBV DNA from 100 μl filtrated cell culture supernatant (AcroPrep Advance 96 Filter Plate, […] Supor membran, PALL GmbH, Dreieich) was automatically purified on the MagNa Pure LC instrument using the MagNA Pure 96 DNA and Viral NA Small Volume Kit (Roche Diagnostics, Mannheim) according to the instructions of the manufacturer. EC50 values were calculated from relative copy numbers of HBV DNA. In brief, 5 μl of the 100 μl eluate containing HBV DNA were subjected to PCR LC480 Probes Master Kit (Roche) together with 1 μM antisense primer […], 0.5 μM sense primer […], 0.3 μM hybprobes […]-FL and LC640-[…]-PH (TIBMolBiol, Berlin) to a final volume of 12.5 μl. The PCR was performed on the Light Cycler 480 real time system (Roche Diagnostics, Mannheim) using the following protocol: Pre-incubation for 1 min at 95° C., amplification: 40 cycles×(10 sec at 95° C., 50 sec at 60° C., 1 sec at 70° C.), cooling for 10 sec at 40° C. Viral load was quantitated against known standards using HBV plasmid DNA of pCH-9/3091 (Nassal et al., 1990, Cell 63: 1357-1363) and the LightCycler 480 SW 1.5 software (Roche Diagnostics, Mannheim) and EC50 values were calculated using non-linear regression with GraphPad Prism 6 (GraphPad Software Inc., La Jolla, USA).

[2] = target: HBV core protein (UniProt P03146); type: biochemical; conditions: read-out: Assembly Activity (IC50); BODIPY-FL labelled core protein, assembly started with NaCl, read after 6 min
Method: Biochemical Capsid Assembly Assay
The screening for assembly effector activity was done based on a fluorescence quenching assay published by Zlotnick et al. (2007). The C-terminal truncated core protein containing 149 amino acids of the N-terminal assembly domain was fused to a unique cysteine residue at position 150 and was expressed in E. coli using the pET expression system (Merck Chemicals, Darmstadt). Purification of core dimer protein was performed using a sequence of size exclusion chromatography steps. In brief, the cell pellet from 1 L BL21 (DE3) Rosetta2 culture expressing the coding sequence of core protein cloned NdeI/XhoI into expression plasmid pET21b was treated for 1 h on ice with a native lysis buffer (Qproteome Bacterial Protein Prep Kit; Qiagen, Hilden). After a centrifugation step the supernatant was precipitated during 2 h stirring on ice with 0.23 g/ml of solid ammonium sulfate. Following further centrifugation the resulting pellet was resolved in buffer A (100 mM Tris, pH 7.5; 100 mM NaCl; 2 mM DTT) and was subsequently loaded onto a buffer A equilibrated CaptoCore 700 column (GE HealthCare, Frankfurt). The column flow through containing the assembled HBV capsid was dialyzed against buffer N (50 mM NaHCO3 pH 9.6; 5 mM DTT) before urea was added to a final concentration of 3M to dissociate the capsid into core dimers for 1.5 h on ice. The protein solution was then loaded onto a 1 L Sephacryl S300 column. After elution with buffer N core dimer containing fractions were identified by SDS-PAGE and subsequently pooled and dialyzed against 50 mM HEPES pH 7.5; 5 mM DTT. To improve the assembly capacity of the purified core dimers a second round of assembly and disassembly starting with the addition of 5 M NaCl and including the size exclusion chromatography steps described above was performed. From the last chromatography step core dimer containing fractions were pooled and stored in aliquots at concentrations between 1.5 to 2.0 mg/ml at −80° C.
Immediately before labelling the core protein was reduced by adding freshly prepared DTT in a final concentration of 20 mM. After 40 min incubation on ice storage buffer and DTT was removed using a Sephadex G-25 column (GE HealthCare, Frankfurt) and 50 mM HEPES, pH 7.5. For labelling 1.6 mg/ml core protein was incubated at 4° C. and darkness overnight with BODIPY-FL maleimide (Invitrogen, Karlsruhe) in a final concentration of 1 mM. After labelling the free dye was removed by an additional desalting step using a Sephadex G-25 column. Labelled core dimers were stored in aliquots at 4° C. In the dimeric state the fluorescence signal of the labelled core protein is high and is quenched during the assembly of the core dimers to high molecular capsid structures. The screening assay was performed in black 384 well microtiter plates in a total assay volume of 10 μl using 50 mM HEPES pH 7.5 and 1.0 to 2.0 μM labelled core protein. Each screening compound was added in 8 different concentrations using a 0.5 log-unit serial dilution starting at a final concentration of 100 μM, 31.6 μM or 10 μM. In any case the DMSO concentration over the entire microtiter plate was 0.5%. The assembly reaction was started by the injection of NaCl to a final concentration of […] which induces the assembly process to approximately 25% of the maximal quenched signal. 6 min after starting the reaction the fluorescence signal was measured using a Clariostar plate reader (BMG Labtech, Ortenberg) with an excitation of 477 nm and an emission of 525 nm. As 100% and 0% assembly control HEPES buffer containing 2.5 M and 0 M NaCl was used. Experiments were performed thrice in triplicates. EC50 values were calculated by non-linear regression analysis using the Graph Pad Prism 6 software (GraphPad Software, La Jolla, USA).

Sequence of HBV core protein (P03146 whole entry, looked up): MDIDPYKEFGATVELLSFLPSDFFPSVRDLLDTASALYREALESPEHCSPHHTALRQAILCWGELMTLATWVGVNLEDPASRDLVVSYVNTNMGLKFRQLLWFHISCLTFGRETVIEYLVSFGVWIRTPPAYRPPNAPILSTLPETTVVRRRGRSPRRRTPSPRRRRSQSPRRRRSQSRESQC

| SMILES | EC50 [1] | IC50 [2] |
| --- | --- | --- |
| O=C(c1cc2ccccc2[nH]1)N1CCc2nc(NC[C@@H]3C[C@@H]4CC[C@H]3O4)sc2C1 (racemic) [Example 33, (+/−)-trans-5-(1H-indole-2-carbonyl)-N-{[(1R,2S,4S)-7-oxabicyclo[2.2.1]heptan-2-yl]methyl}-4H,5H,6H,7H-[1,3]thiazolo[5,4-c]pyridin-2-amine] | < 1 µM | < 5 µM |
| O=C(c1cc2ccccc2[nH]1)N1CCc2nc(NC[C@H]3C[C@@H]4CC[C@H]3O4)sc2C1 (racemic) [Example 34, (+/−)-cis-5-(1H-indole-2-carbonyl)-N-{1[(1R,2R,4S)-7-oxabicyclo[2.2.1]heptan-2-yl]methyl}-4H,5H,6H,7H-[1,3]thiazolo[5,4-c]pyridin-2-amine] | < 1 µM | < 5 µM |
| O=C(c1cc2ccccc2[nH]1)N1CCc2nc(N[C@H]3COCC[C@@H]3O)sc2C1 (racemic) [Example 339, (±)-3-{[5-(1H-indole-2-carbonyl)-4H,5H,6H,7H-[1,3]thiazolo[5,4-c]pyridin-2-yl]amino}oxan-4-ol] | < 1 µM | 5 to 10 µM |
| CC(O)CNc1nc2c(s1)CN(C(=O)c1cc3ccccc3[nH]1)CC2 (stereo in doubt) [Example 131, (2S)-1-{[5-(1H-indole-2-carbonyl)-4H,5H,6H,7H-[1,3]thiazolo[5,4-c]pyridin-2-yl]amino}propan-2-ol] | < 1 µM | < 5 µM |
| O=C(c1cc2ccccc2[nH]1)N1CCc2nc(CNCC3CCOC3)sc2C1 (centres unmarked) [Example 1, {[5-(1H-indole-2-carbonyl)-4H,5H,6H,7H-[1,3]thiazolo[5,4-c]pyridin-2-yl]methyl}[(oxolan-3-yl)methyl]amine] | 1 to 10 µM | < 100 µM |
| O=C(Nc1nc2c(s1)CN(C(=O)c1cc3ccccc3[nH]1)CC2)C1CCOCC1 [Example 2, N-[5-(1H-indole-2-carbonyl)-4H,5H,6H,7H-[1,3]thiazolo[5,4-c]pyridin-2-yl]oxane-4-carboxamide] | < 1 µM | < 5 µM |
| COCC(=O)Nc1nc2c(s1)CN(C(=O)c1cc3ccccc3[nH]1)CC2 [Example 3, N-[5-(1H-indole-2-carbonyl)-4H,5H,6H,7H-[1,3]thiazolo[5,4-c]pyridin-2-yl]-2-methoxyacetamide] | < 1 µM | < 5 µM |
| CCOCC(=O)Nc1nc2c(s1)CN(C(=O)c1cc3ccccc3[nH]1)CC2 [Example 4, 2-ethoxy-N-[5-(1H-indole-2-carbonyl)-4H,5H,6H,7H-[1,3]thiazolo[5,4-c]pyridin-2-yl]acetamide] | < 1 µM | < 5 µM |
| CCOC(=O)N1CCC(Nc2nc3c(s2)CN(C(=O)c2cc4ccccc4[nH]2)CC3)CC1 [Example 5, Ethyl 4-{[5-(1H-indole-2-carbonyl)-4H,5H,6H,7H-[1,3]thiazolo[5,4-c]pyridin-2-yl]amino}piperidine-1-carboxylate] | < 1 µM | 5 to 10 µM |
| O=C(c1cc2ccccc2[nH]1)N1CCc2nc(NS(=O)(=O)C3CC3)sc2C1 [Example 6, N-[5-(1H-indole-2-carbonyl)-4H,5H,6H,7H-[1,3]thiazolo[5,4-c]pyridin-2-yl]cyclopropanesulfonamide] | < 1 µM | < 100 µM |
| CCc1cc(F)cc2[nH]c(C(=O)N3CCc4nc(N)sc4C3)cc12 [Example 7, 5-(4-ethyl-6-fluoro-1H-indole-2-carbonyl)-4H,5H,6H,7H-[1,3]thiazolo[5,4-c]pyridin-2-amine] | < 1 µM | < 5 µM |
| CCc1ccc(F)c2[nH]c(C(=O)N3CCc4nc(N)sc4C3)cc12 [Example 8, 5-(4-ethyl-7-fluoro-1H-indole-2-carbonyl)-4H,5H,6H,7H-[1,3]thiazolo[5,4-c]pyridin-2-amine] | < 1 µM | < 5 µM |
| Nc1nc2c(s1)CN(C(=O)c1cc3c(CO)cccc3[nH]1)CC2 [Example 9, (2-{2-amino-4H,5H,6H,7H-[1,3]thiazolo[5,4-c]pyridine-5-carbonyl}-1H-indol-4-yl)methanol] | 1 to 10 µM | 5 to 10 µM |
| CC(O)c1cccc2[nH]c(C(=O)N3CCc4nc(N)sc4C3)cc12 (centres unmarked) [Example 10, 1-(2-{2-amino-4H,5H,6H,7H-[1,3]thiazolo[5,4-c]pyridine-5-carbonyl}-1H-indol-4-yl)ethan-1-ol] | 1 to 10 µM | < 100 µM |
| CC(C)c1cccc2[nH]c(C(=O)N3CCc4nc(N)sc4C3)cc12 [Example 12, 5-[4-(propan-2-yl)-1H-indole-2-carbonyl]-4H,5H,6H,7H-[1,3]thiazolo[5,4-c]pyridin-2-amine] | < 1 µM | < 5 µM |
| C=Cc1cccc2[nH]c(C(=O)N3CCc4nc(N)sc4C3)cc12 [Example 13, 5-(4-ethenyl-1H-indole-2-carbonyl)-4H,5H,6H,7H-[1,3]thiazolo[5,4-c]pyridin-2-amine] | 1 to 10 µM | 5 to 10 µM |
| C#Cc1cccc2[nH]c(C(=O)N3CCc4nc(N)sc4C3)cc12 [Example 14, 5-(4-ethynyl-1H-indole-2-carbonyl)-4H,5H,6H,7H-[1,3]thiazolo[5,4-c]pyridin-2-amine] | 1 to 10 µM | < 100 µM |
| CC(O)c1cc(F)cc2[nH]c(C(=O)N3CCc4nc(N)sc4C3)cc12 (centres unmarked) [Example 15, 1-(2-{2-amino-4H,5H,6H,7H-[1,3]thiazolo[5,4-c]pyridine-5-carbonyl}-6-fluoro-1H-indol-4-yl)ethan-1-ol] | 1 to 10 µM | 5 to 10 µM |
| N#Cc1ccc2cc(C(=O)N3CCc4nc(N)sc4C3)[nH]c2c1 [Example 17, 2-{2-amino-4H,5H,6H,7H-[1,3]thiazolo[5,4-c]pyridine-5-carbonyl}-1H-indole-6-carbonitrile] | 1 to 10 µM | < 100 µM |
